# Patent US10077261B2, “Imidazolin-5-one derivative useful as FASN inhibitors for the treatment of cancer” (Janssen Pharmaceutica NV, priority 2012, dated 2018)
# Molecular target: T1, hFASN enzyme (full length) (Homo sapiens, UniProt P49327)
# T1 construct: 10 μL hFASN enzyme (full length, 300 ng, purified in house); made in house
# Experiment: Fatty Acid Synthase (FASN) inhibition scintillation proximity assay
# Type: biochemical
# Conditions: for inhibition at 10 µM: read-out: Human FASN % inhibition @ 10 μM, 10 μM test compound; for IC50: read-out: Human FASN pIC50 (converted)
# Method in brief: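 Proximity read-out: hydrophobic ^3H-palmitate formed from ^3H-acetyl-CoA and malonyl-CoA binds streptavidin imaging beads, imaged at 610±20 nm at least 24 h after stopping. Enzyme was in-house purified full-length hFASN, 300 ng, in pH 7.5 phosphate/DTT buffer; compound series 30 μM down to 0.01 μM, normalized to controls, 4-parameter fit.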
# T1 sequence (P49327 whole entry): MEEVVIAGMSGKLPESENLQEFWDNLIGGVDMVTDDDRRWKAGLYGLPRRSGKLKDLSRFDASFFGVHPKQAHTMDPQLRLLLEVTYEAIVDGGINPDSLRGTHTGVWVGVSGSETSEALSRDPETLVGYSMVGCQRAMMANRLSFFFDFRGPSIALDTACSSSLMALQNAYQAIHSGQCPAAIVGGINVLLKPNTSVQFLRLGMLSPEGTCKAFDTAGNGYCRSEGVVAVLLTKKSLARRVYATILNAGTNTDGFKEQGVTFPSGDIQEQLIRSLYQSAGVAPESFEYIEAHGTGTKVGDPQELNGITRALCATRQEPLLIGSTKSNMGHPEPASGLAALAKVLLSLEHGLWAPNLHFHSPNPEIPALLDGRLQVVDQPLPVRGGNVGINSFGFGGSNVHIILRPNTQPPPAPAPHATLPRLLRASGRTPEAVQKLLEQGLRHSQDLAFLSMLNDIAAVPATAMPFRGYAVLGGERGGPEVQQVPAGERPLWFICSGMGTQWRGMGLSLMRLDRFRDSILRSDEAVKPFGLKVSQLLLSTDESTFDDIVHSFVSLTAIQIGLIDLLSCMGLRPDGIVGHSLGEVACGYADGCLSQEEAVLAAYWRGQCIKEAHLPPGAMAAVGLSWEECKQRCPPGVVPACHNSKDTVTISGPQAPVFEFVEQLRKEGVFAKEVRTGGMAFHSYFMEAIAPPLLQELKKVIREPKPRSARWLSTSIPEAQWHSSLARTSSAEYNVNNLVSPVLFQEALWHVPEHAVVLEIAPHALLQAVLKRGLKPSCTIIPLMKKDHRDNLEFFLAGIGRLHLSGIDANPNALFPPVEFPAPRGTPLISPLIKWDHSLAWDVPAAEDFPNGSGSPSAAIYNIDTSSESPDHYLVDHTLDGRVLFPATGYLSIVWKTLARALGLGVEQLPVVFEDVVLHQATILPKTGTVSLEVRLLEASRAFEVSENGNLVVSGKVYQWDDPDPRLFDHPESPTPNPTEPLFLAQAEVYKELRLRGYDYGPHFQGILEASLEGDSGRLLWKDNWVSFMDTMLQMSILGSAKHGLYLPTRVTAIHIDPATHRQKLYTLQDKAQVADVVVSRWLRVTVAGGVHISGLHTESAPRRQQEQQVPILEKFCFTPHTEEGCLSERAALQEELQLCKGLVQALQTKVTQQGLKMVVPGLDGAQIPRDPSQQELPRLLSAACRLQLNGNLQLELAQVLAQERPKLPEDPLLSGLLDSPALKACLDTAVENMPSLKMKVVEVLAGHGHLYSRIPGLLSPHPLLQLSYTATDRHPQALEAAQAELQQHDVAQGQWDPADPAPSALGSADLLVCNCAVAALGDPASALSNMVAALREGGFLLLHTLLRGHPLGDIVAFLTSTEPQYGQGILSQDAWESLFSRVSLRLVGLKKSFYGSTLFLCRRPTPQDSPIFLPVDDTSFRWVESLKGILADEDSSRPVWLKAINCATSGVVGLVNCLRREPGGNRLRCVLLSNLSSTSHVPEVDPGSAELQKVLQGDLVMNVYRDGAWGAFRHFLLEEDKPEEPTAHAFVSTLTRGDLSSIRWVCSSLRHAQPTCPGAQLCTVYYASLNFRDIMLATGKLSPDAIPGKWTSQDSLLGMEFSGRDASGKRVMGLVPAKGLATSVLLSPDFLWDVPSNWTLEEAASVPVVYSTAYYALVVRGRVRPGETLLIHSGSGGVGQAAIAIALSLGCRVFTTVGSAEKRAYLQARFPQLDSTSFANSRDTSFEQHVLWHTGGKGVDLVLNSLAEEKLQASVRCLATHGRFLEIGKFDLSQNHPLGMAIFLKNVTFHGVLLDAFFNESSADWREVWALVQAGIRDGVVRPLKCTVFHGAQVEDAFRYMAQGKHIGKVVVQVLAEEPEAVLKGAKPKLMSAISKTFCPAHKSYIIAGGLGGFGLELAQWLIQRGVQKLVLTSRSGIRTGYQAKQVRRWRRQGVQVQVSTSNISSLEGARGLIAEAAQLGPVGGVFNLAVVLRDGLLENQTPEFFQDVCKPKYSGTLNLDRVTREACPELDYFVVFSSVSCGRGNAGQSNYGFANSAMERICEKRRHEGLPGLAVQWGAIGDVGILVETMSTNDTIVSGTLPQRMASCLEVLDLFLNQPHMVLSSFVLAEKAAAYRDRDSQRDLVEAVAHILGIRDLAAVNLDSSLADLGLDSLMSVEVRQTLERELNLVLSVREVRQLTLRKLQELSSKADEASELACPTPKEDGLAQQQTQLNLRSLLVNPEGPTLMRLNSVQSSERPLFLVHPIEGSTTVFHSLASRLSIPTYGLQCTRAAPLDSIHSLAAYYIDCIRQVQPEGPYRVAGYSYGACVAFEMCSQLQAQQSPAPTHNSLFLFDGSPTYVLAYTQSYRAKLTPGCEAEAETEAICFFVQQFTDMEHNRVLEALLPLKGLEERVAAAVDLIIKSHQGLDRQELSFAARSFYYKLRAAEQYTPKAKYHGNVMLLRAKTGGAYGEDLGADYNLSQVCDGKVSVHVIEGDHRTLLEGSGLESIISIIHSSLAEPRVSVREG
inhibition at 10 µM [%],IC50 [µM],Structure (SMILES)
38,> 10,"O=C(C1CC1)N1CC[C@@H](CN2C(=O)C3(CC3)N=C2c2ccc(-c3cccc(OC(F)(F)F)c3)cc2)C1 [compound 146, 6-{[(3R)-1-(Cyclopropylcarbonyl)pyrrolidin-3-yl]methyl}-5-[3′-(trifluoromethoxy)biphenyl-4-yl]-4,6-diazaspiro[2.4]hept-4-en-7-one]"
16,> 10,"CC(=O)N1CCC2(CC1)N=C(c1ccc(C3=CC4CCN(C(C)=O)CC4C=C3)cc1)N(C[C@@H]1CCN(C(=O)C3CC3)C1)C2=O (stereo partly drawn) [compound 161, 8-Acetyl-2-[4-(2-acetyl-1,2,3,4,4a,8a-hexahydroisoquinolin-6-yl)phenyl]-3-{[(3R)-1-(cyclopropylcarbonyl)pyrrolidin-3-yl]methyl}-1,3,8-triazaspiro[4.5]dec-1-en-4-one]"
69,2.45,"Cn1cc(-c2ccc(-c3ccc(C4=NC5(CCOCC5)C(=O)N4CC4CN(C(=O)C5CC5)C4)cc3)cc2)cn1 [compound 694, 3-{[1-(Cyclopropylcarbonyl)azetidin-3-yl]methyl}-2-[4-(1-methyl-1H-pyrazol-4-yl)biphenyl-4-yl]-8-oxa-1,3-diazaspiro[4.5]dec-1-en-4-one]"
-7,> 10,"Cn1ncc2cc(-c3ccc(C4=NC5(CCOCC5)C(=O)N4C[C@@H]4CCN(C(=O)c5nccs5)C4)cc3)ccc21 [compound 959, (R)-2-(4-(1-methyl-1H-indazol-5-yl)phenyl)-3-((1-(thiazole-2-carbonyl)pyrrolidin-3-yl)methyl)-8-oxa-1,3-diazaspiro[4.5]dec-1-en-4-one]"
79,1.91,"CC(=O)c1ccc(-c2ccc(C3=NC4(CCCC4)C(=O)N3C[C@@H]3CCN(C(=O)C4CC4)C3)c(F)c2)cc1 [compound 886, (R)-2-(4′-acetyl-3-fluoro-[1,1′-biphenyl]-4-yl)-3-((1-(cyclopropanecarbonyl)pyrrolidin-3-yl)methyl)-1,3-diazaspiro[4.4]non-1-en-4-one]"
45,~7.59,"Cn1ncc2cc(-c3ccc(C4=NC5(CCN(S(C)(=O)=O)CC5)C(=O)N4CC4CN(C(=O)C5CC5)C4)cc3)ccc21 [compound 761, 3-{[1-(Cyclopropylcarbonyl)azetidin-3-yl]methyl}-2-[4-(1-methyl-1H-indazol-5-yl)phenyl]-8-(methylsulfonyl)-1,3,8-triazaspiro[4.5]dec-1-en-4-one]"
43,~10,"Cc1cc(C2=NC3(CC3)C(=O)N2CC2CN(C(=O)C3CC3)C2)ccc1-c1ccc2c(cnn2C)c1 [compound 436, 6-{[1-(Cyclopropylcarbonyl)azetidin-3-yl]methyl}-5-[3-methyl-4-(1-methyl-1H-indazol-5-yl)phenyl]-4,6-diazaspiro[2.4]hept-4-en-7-one]"
2,> 10,"Cn1cc(-c2ccc(-c3ccc(C4=NC5(CCOC5)C(=O)N4CC4CN(C(=O)c5nccs5)C4)cc3)cc2)cn1 (stereo not drawn) [compound 901, 2-(4′-(1-methyl-1H-pyrazol-4-yl)-[1,1′-biphenyl]-4-yl)-3-((1-(thiazol-2-carbonyl)azetidin-3-yl)methyl)-7-oxa-1,3-diazaspiro[4.4]non-1-en-4-one]"
68,2.19,"O=C(C1CC1)N1CC(CN2C(=O)C3(CC3)N=C2c2ccc(-c3ccc4nccnc4c3)cc2)C1 [compound 481, 6-{[1-(Cyclopropylcarbonyl)azetidin-3-yl]methyl}-5-(4-quinoxalin-6-ylphenyl)-4,6-diazaspiro[2.4]hept-4-en-7-one]"
1,> 10,"CC(C)(O)c1ccc(-c2ccc(C3=NC4(CC4)C(=O)N3CC3CN(C(=O)C4CC4)C3)cc2)cn1 [compound 797, 6-((1-(cyclopropanecarbonyl)azetidin-3-yl)methyl)-5-(4-(6-(2-hydroxypropan-2-yl)pyridin-3-yl)phenyl)-4,6-diazaspiro[2.4]hept-4-en-7-one]"
74,2.88,"CC(C)n1ccc2cc(-c3ccc(C4=NC5(CC5)C(=O)N4CC4CN(C(=O)C5CC5)C4)cc3)ccc21 [compound 508, 6-{[1-(Cyclopropylcarbonyl)azetidin-3-yl]methyl}-5-{4-[1-(1-methylethyl)-1H-indol-5-yl]phenyl}-4,6-diazaspiro[2.4]hept-4-en-7-one]"
44.3,> 10,"O=C(C1CC1)N1CC[C@@H](CN2C(=O)C3(CCCC3)N=C2c2ccc(-c3ccncc3)cc2)C1 [compound 3, 3-{[(3R)-1-(Cyclopropylcarbonyl)pyrrolidin-3-yl]methyl}-2-(4-pyridin-4-ylphenyl)-1,3-diazaspiro[4.4]non-1-en-4-one]"
84,1.7,"COC(=O)N1CC2(C1)N=C(c1ccc(-c3ccc4occc4c3)cc1)N(C[C@@H]1CCN(C(=O)C(C)O)C1)C2=O (stereo partly drawn) [compound 734, Methyl 6-[4-(1-benzofuran-5-yl)phenyl]-7-{[(3R)-1-(2-hydroxypropanoyl)pyrrolidin-3-yl]methyl}-8-oxo-2,5,7-triazaspiro[3.4]oct-5-ene-2-carboxylate]"
52,8.32,"O=C(C1CC1)N1CC(CN2C(=O)C3(CC3)N=C2c2ccc(-c3ccc4nn(CC5CC5)cc4c3)cc2)C1 [compound 501, 6-{[1-(Cyclopropylcarbonyl)azetidin-3-yl]methyl}-5-{4-[2-(cyclopropylmethyl)-2H-indazol-5-yl]phenyl}-4,6-diazaspiro[2.4]hept-4-en-7-one]"
83.8,1.51,"O=C(C1CC1)N1CCC(CN2C(=O)C3(CC3)N=C2c2ccc(-c3cccc(O)c3)cc2)CC1 [compound 108, 6-{[1-(Cyclopropylcarbonyl)piperidin-4-yl]methyl}-5-(3′-hydroxybiphenyl-4-yl)-4,6-diazaspiro[2.4]hept-4-en-7-one]"
119,0.0363,"CC(C)C(=O)N1CCC2(CC1)N=C(c1ccc(-c3ccc4cnccc4c3)cc1)N(C[C@@H]1CCN(C(=O)C3CC3)C1)C2=O [compound 143, 3-{[(3R)-1-(Cyclopropylcarbonyl)pyrrolidin-3-yl]methyl}-2-(4-isoquinolin-6-ylphenyl)-8-(2-methylpropanoyl)-1,3,8-triazaspiro[4.5]dec-1-en-4-one]"
24.4,> 10,"NC(=O)CN1CC[C@@H](CN2C(=O)C3(CCN(Cc4ccccc4)CC3)N=C2c2ccc(-c3ccc4occc4c3)cc2)C1 [compound 95, 2-[(3R)-3-({2-[4-(1-Benzofuran-5-yl)phenyl]-8-benzyl-4-oxo-1,3,8-triazaspiro[4.5]dec-1-en-3-yl}methyl)pyrrolidin-1-yl]acetamide]"
16,> 10,"N#CC1(c2ccc(-c3ccc(C4=NC5(CC5)C(=O)N4CC4CN(C(=O)C5CC5)C4)cc3)cn2)CC1 [compound 800, 1-(5-(4-(6-((1-(cyclopropanecarbonyl)azetidin-3-yl)methyl)-7-oxo-4,6-diazaspiro[2.4]hept-4-en-5-yl)phenyl)pyridin-2-yl)cyclopropanecarbonitrile]"
31,> 10,"COC(=O)N1CC[C@@H](CN2C(=O)C3(CN(C(=O)OC)C3)N=C2c2ccc(-c3ccc4occc4c3)cc2)C1 [compound 931, (S)-methyl 6-(4-(benzofuran-5-yl)phenyl)-7-((1-(methoxycarbonyl)pyrrolidin-3-yl)methyl)-8-oxo-2,5,7-triazaspiro[3.4]oct-5-ene-2-carboxylate]"
66,2.82,Cn1ncc2cc(-c3ccc(C4=NC5(CCOCC5)C(=O)N4C[C@@H]4CCN(C(=O)N5CCCC5)C4)cc3)ccc21 [compound 675]
29.3,> 10,CC(=O)N1CCC2(CC1)N=C(c1ccc(-c3ccc4c(c3)CCN(C(C)=O)C4)cc1)N(C[C@@H]1CCN(C(=O)C3CC3)C1)C2=O [compound 160]
–,0.0468,"Cc1cc2cc(-c3ccc(C4=NC5(CC5)C(=O)N4CC4CN(C(=O)C5CC5)C4)c(F)c3)ccc2[nH]1 [compound 869, 6-((1-(cyclopropanecarbonyl)azetidin-3-yl)methyl)-5-(2-fluoro-4-(2-methyl-1H-indol-5-yl)phenyl)-4,6-diazaspiro[2.4]hept-4-en-7-one]"
25,> 10,"Cn1cc(-c2ccc(-c3ccc(C4=NC5(CCOCC5)C(=O)N4C[C@@H]4CCN(C(=O)c5nccs5)C4)cc3)cc2)cn1 [compound 948, (R)-2-(4′-(1-methyl-1H-pyrazol-4-yl)-[1,1′-biphenyl]-4-yl)-3-((1-(thiazole-2-carbonyl)pyrrolidin-3-yl)methyl)-8-oxa-1,3-diazaspiro[4.5]dec-1-en-4-one]"
4,> 10,"O=C(C1CC1)N1CC[C@@H](CN2C(=O)C3(CCCC3)N=C2c2ccc(-c3ccnc(N4CCNCC4)c3)cc2)C1 [compound 828, (R)-3-((1-(cyclopropanecarbonyl)pyrrolidin-3-yl)methyl)-2-(4-(2-(piperazin-1-yl)pyridin-4-yl)phenyl)-1,3-diazaspiro[4.4]non-1-en-4-one]"
104,0.138,"Cc1sc2ccc(-c3ccc(C4=NC5(CCN(C(=O)CN(C)C)CC5)C(=O)N4C[C@@H]4CCN(C(=O)C5CC5)C4)cc3)cc2c1C [compound 182, 3-{[(3R)-1-(Cyclopropylcarbonyl)pyrrolidin-3-yl]methyl}-2-[4-(2,3-dimethyl-1-benzothiophen-5-yl)phenyl]-8-(N,N-dimethylglycyl)-1,3,8-triazaspiro[4.5]dec-1-en-4-one]"
60,5.01,"Cn1cc(-c2ccc(-c3ccc(C4=NC5(CCN(S(C)(=O)=O)CC5)C(=O)N4CC4CN(C(=O)C5CC5)C4)cc3)cc2)cn1 [compound 769, 3-{[1-(Cyclopropylcarbonyl)azetidin-3-yl]methyl}-2-[4′-(1-methyl-1H-pyrazol-4-yl)biphenyl-4-yl]-8-(methylsulfonyl)-1,3,8-triazaspiro[4.5]dec-1-en-4-one]"
